Assay results from paper PMC6711177, “Sorafenib-loaded hydroxyethyl starch-TG100-115 micelles for the treatment of liver cancer based on synergistic treatment” (Drug Delivery, 2019).

Key:
[1] = system: Hep-3B-xenografted nude mouse model; test: In vivo anti-tumor activity and safety in Hep-3B-xenografted nude mouse model; details: Hep-3B nude mouse, TG100-115 30 mg/kg and/or sorafenib 20 mg/kg; for IRT (tumor inhibition rate): versus normal saline
Experimental: The in vivo anti-tumor activity and safety of the prepared micelles was investigated by using Hep-3B-xenografted nude mouse model. The mice were randomly divided into six groups (n = 6) when the tumor volumes reached around 150 mm^3. The tumor-bearing mice were treated with non-targeted micelles solution, targeted micelle solution, TG100-115 solution, sorafenib solution, mixed sorafenib/TG100-115 solution and normal saline. […] The mice were sacrificed on day 28. Thereafter, the tumors were totally excised and precisely weighed. The tumor inhibitory rates were calculated using the formula: Tumor inhibition rate (%) = (Vblank −Vsample)/Vblank × 100%, Vblank, and Vsample represent the tumor volumes in the blank and test, reference group respectively.

[2] = in vivo; parameters: species or system Sprague-Dawley rats; details: rat, iv
Experimental: Sprague-Dawley rats were randomly divided into three groups and each group contains 6 rats. The prepared micelles solution was injected through femoral vein and the dose was 20 mg/kg (sorafenib) and 30 mg/kg (TG100-115). Free sorafenib and TG100-115 solutions were used as reference and the dose is same as the micelles group. After the end of administration, appropriate blood was obtained from the retro-orbital sinus at preselected time intervals (5, 10, 15, 30, 60 min, 2, 4, 6, 8, 12, 24, 48 and 72 h). Then, the blood was centrifuged at 3500 rpm for 10 min to acquire final plasma.
The plasma concentration of sorafenib and TG100-115 was measured using a validated HPLC-MS/MS method. The specific conditions are as follows: poroshell 120 poroshell-C18 column (50 mm × 4.6 mm, 2.7 μm, Agilent) was chosen as an analytical column, and the column temperature was 40 °C. The mobile phase comprised acetonitrile and 10 mmol/L ammonium acetate containing 0.1% formic acid, and the flow rate was 0.7 mL/min. Imatinib and naproxen were chosen as internal standard (IS) to improve the accuracy of the measurement. The ion ionization of sorafenib and imatinib was positive ion ionization, while TG100-115 and naproxen were negative ion ionization. The specific MS parameters of analytes were shown in S1 (Supplemental 1).
Plasma samples are processed according to the standard operating practices described below. Briefly, add 150.0 μL of plasma sample and 20.0 μL of the IS solution in a 2.0 mL EP tube. Then, the solution was vortexed for 1.0 min and added 300 μL of ice acetonitrile to precipitate protein. After vortexing for 1.0 min, the solution was centrifuged at 15000 rpm for 10 min. After that, 150 μL of supernatant was collected for quantitative analysis.

[3] = parameters: method as in Hsu et al., 2018; Wang et al., 2018; details: checkpoint inhibitor alone only 20%, ref Hsu et al., 2018, Wang et al.; cited from earlier work
[4] = twice a week for 4 weeks, day 28

Compound	Body weight Final [1, 4] [g]	Tumor weight [1, 4] [g]	IRT (tumor inhibition rate) [1, 4] [%]	Body weight Initial ([1]; before treatment) [g]	AUC(0-inf) ([2]; Sprague-Dawley, 20 mg/kg) [µg·h/mL]	AUC(0-t) ([2]; Sprague-Dawley, 20 mg/kg) [µg·h/mL]	Cmax ([2]; Sprague-Dawley, 20 mg/kg) [µg/mL]	Tmax ([2]; Sprague-Dawley, 20 mg/kg) [h]	clearance ([2]; Sprague-Dawley, 20 mg/kg) [L/h/kg]	half-life ([2]; Sprague-Dawley, 20 mg/kg) [h]	efficiency of checkpoint inhibitor in the treatment of immune-tolerant mice when combined with TG100-115 [3] [%]	CLz of TG100-115 ([2]; 30 mg/kg) [L/h/kg]
CNC(=O)c1cc(Oc2ccc(NC(=O)Nc3ccc(Cl)c(C(F)(F)F)c3)cc2)ccn1 [Sorafenib]	34.2	2.48 ± 0.36	46.09	23.6	0.0786 ± 0.0206	0.0745 ± 0.0187	0.0173 ± 0.0032	0.167 ± 0.073	25.4	8.8 ± 1.4		
Nc1nc(N)c2nc(-c3cccc(O)c3)c(-c3cccc(O)c3)nc2n1 [TG100-115]		2.72 ± 0.31	40.87								80	32.7 ± 5.5
